IC50 data for 16 molecules are collected here from patent US20260132132A1, “3A,4,5,6-TETRAHYDRO-1 H-PYRAZOLO[3,4-C]PYRIDIN-7(7AH)-ONE DERIVATIVES AS FACTOR XIIA INHIBITORS” (KALVISTA PHARMACEUTICALS LIMITED, priority 2022, published 2026).

Molecules are shown by their SMILES.

Assay [1] addresses T1, Human Factor XIIa (hFXIIa) (Homo sapiens, UniProt P00748).
T1 construct: purchased Enzyme Research Laboratories
T1 sequence (P00748 373-615 limits assumed): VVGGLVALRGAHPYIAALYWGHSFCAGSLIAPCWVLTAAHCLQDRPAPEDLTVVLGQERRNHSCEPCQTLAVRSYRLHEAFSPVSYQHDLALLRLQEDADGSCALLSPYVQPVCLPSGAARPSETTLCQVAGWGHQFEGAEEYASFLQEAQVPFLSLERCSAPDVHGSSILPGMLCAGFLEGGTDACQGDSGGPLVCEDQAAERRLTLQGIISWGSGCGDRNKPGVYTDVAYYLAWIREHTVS
T1 sequence (P00748 20-372 partner limits assumed): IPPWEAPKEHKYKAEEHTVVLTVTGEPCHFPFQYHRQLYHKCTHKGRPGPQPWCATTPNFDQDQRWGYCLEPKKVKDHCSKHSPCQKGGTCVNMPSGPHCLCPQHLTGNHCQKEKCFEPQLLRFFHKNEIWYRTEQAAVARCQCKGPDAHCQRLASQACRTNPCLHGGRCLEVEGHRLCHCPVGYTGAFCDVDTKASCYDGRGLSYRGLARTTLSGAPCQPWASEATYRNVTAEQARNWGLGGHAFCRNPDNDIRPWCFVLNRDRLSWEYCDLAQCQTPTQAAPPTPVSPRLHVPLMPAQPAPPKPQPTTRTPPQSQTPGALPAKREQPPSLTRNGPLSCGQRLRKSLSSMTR
The experiment in a line: Determination of Human Factor XIIa (hFXIIa) inhibition, fluorogenic substrate IC50 assay. The format is biochemical. The conditions noted are these: fluorogenic substrate H-DPro-Phe-Arg-AFC at Km, 25° C., read-out: Human FXIIa IC50. The method, then: Determination of Human Factor XIIa (hFXIIa) inhibition
The Km for the cleavage of the substrate by hFXIIa was determined by standard transformation of the Michaelis-Menten equation, with subsequent inhibition assays performed at substrate Km concentration.

Assay [2] deals with FXa (Homo sapiens, UniProt P00742). The assay is described as follows: Related protease inhibition: FXa, fluorogenic substrate. The format is biochemical. The following applies: fluorogenic substrate at Km, 25° C.; H1-H3 = % activity at 40 μM. The method, then: Human serine protease enzyme Plasma Kallikrein, KLK1, FXa, Plasmin, Thrombin and Trypsin were assayed for enzymatic activity using an appropriate fluorogenic substrate at Km concentration, FXIa at fixed substrate concentration of 100 μM and various concentrations of the test compound.
Chain of FXa (P00742 235-488 limits assumed): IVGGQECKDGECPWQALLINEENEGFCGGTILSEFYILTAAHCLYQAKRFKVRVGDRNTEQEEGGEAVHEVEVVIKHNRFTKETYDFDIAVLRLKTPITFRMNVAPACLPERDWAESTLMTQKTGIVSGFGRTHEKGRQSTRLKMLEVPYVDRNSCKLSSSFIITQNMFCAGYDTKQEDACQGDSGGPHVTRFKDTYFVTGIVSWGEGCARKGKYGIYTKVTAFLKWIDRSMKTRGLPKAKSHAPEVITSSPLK
Chain of FXa (P00742 41-179 partner limits assumed): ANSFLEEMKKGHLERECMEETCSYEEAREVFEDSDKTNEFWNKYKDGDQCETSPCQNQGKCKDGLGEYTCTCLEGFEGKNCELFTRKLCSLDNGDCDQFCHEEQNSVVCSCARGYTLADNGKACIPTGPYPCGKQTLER

For the molecule `O=C(NCc1ncco1)c1nn(-c2cccc(Cl)c2)c2c1CCN(c1ccc3c(c1)CN(CCO)CC3)C2=O` [Example 1151, 1-(3-chlorophenyl)-6-(2-(2-hydroxyethyl)-1,2,3,4-tetrahydroisoquinolin-7-yl)-N-(oxazol-2-ylmethyl)-7-oxo-4,5,6,7-tetrahydro-1H-pyrazolo[3,4-c]pyridine-3-carboxamide], the IC50 is 100 to 300 nM in assay [1] and 10 to 40 µM in assay [2].
For the molecule `COc1ccncc1CNC(=O)c1nn(-c2cccc(Cl)c2)c2c1CCN(c1ccc3c(c1)C(=O)N(C)CC3)C2=O` [Example 1271, 1-(3-chlorophenyl)-N-((4-methoxypyridin-3-yl)methyl)-6-(2-methyl-1-oxo-1,2,3,4-tetrahydroisoquinolin-7-yl)-7-oxo-4,5,6,7-tetrahydro-1H-pyrazolo[3,4-c]pyridine-3-carboxamide], the results for the IC50 in assay [1] and in assay [2] were 100 to 300 nM and above 40 µM, respectively.
Turning to `Cc1nc2c(CNC(=O)C3CC3)nn(-c3cccc(Cl)c3)c2c(=O)n1-c1ccc2c(c1)CN(CCO)CC2` [Example 3008, N-((1-(3-chlorophenyl)-6-(2-(2-hydroxyethyl)-1,2,3,4-tetrahydroisoquinolin-7-yl)-5-methyl-7-oxo-6,7-dihydro-1H-pyrazolo[4,3-d]pyrimidin-3-yl)methyl)cyclopropanecarboxamide], the IC50 in assay [1] lay within 300 to 1000 nM; in assay [2], 3 to 10 µM.
`O=C(NCc1cocn1)c1nn(-c2cccc(Cl)c2)c2c1CCN(c1ccc3c(c1)CN(CCO)CC3)C2=O` [Example 1223, 1-(3-chlorophenyl)-6-(2-(2-hydroxyethyl)-1,2,3,4-tetrahydroisoquinolin-7-yl)-N-(oxazol-4-ylmethyl)-7-oxo-4,5,6,7-tetrahydro-1H-pyrazolo[3,4-c]pyridine-3-carboxamide]: the IC50 in assay [1] fell in the range of 100 to 300 nM; in assay [2], 10 to 40 µM.
Take `Cc1ccncc1CNC(=O)c1nn(-c2cccc(Cl)c2)c2c1CCN(c1ccc3c(c1)C(=O)N(CCCO)CCO3)C2=O` [Example 1376, 1-(3-chlorophenyl)-6-(4-(3-hydroxypropyl)-5-oxo-2,3,4,5-tetrahydrobenzo[f][1,4]oxazepin-7-yl)-N-((4-methylpyridin-3-yl)methyl)-7-oxo-4,5,6,7-tetrahydro-1H-pyrazolo[3,4-c]pyridine-3-carboxamide]: the IC50 was in the range of 10 to 100 nM in assay [1] and 3 to 10 µM in assay [2].
`Cc1cc(CNC(=O)c2nn(-c3cccc(Cl)c3)c3c2CCN(c2ccc4c(c2)CCN(C)C4=O)C3=O)nn1C` [Example 1205, 1-(3-chlorophenyl)-N-((1,5-dimethyl-1H-pyrazol-3-yl)methyl)-6-(2-methyl-1-oxo-1,2,3,4-tetrahydroisoquinolin-6-yl)-7-oxo-4,5,6,7-tetrahydro-1H-pyrazolo[3,4-c]pyridine-3-carboxamide]: the values for the IC50 in assay [1] and in assay [2] were 10000 to 40000 nM and above 40 µM, respectively.
Consider `O=C(NCc1ccccc1)c1nn(-c2cccc(Cl)c2)c2c1CCN(c1ccc3c(c1)CN(CC1CC1)CC3)C2=O` [Example 1019, N-benzyl-1-(3-chlorophenyl)-6-(2-(cyclopropylmethyl)-1,2,3,4-tetrahydroisoquinolin-7-yl)-7-oxo-4,5,6,7-tetrahydro-1H-pyrazolo[3,4-c]pyridine-3-carboxamide], for which the IC50 is 100 to 300 nM in assay [1] and above 40 µM in assay [2].
The like results for `COc1cc(N2CCc3c(C(=O)NCC4CC4)nn(-c4cccc(Cl)c4)c3C2=O)cc2c1CCN(CCO)C2` [Example 1226, 1-(3-chlorophenyl)-N-(cyclopropylmethyl)-6-(2-(2-hydroxyethyl)-5-methoxy-1,2,3,4-tetrahydroisoquinolin-7-yl)-7-oxo-4,5,6,7-tetrahydro-1H-pyrazolo[3,4-c]pyridine-3-carboxamide] were, in that order, 100 to 300 nM and above 40 µM.
As for `CCNC(=O)c1nn(-c2cccc(Cl)c2)c2c1CCN(c1ccc(OC)c(N3CCCC3=O)c1)C2=O` [Example 1401, 1-(3-chlorophenyl)-N-ethyl-6-(4-methoxy-3-(2-oxopyrrolidin-1-yl)phenyl)-7-oxo-4,5,6,7-tetrahydro-1H-pyrazolo[3,4-c]pyridine-3-carboxamide], the IC50 was 1000 to 3000 nM in assay [1] and above 40 µM in assay [2].
`CN1CCc2ccc(N3CCc4c(C(=O)NCC5CC5)nn(-c5cccc(Cl)c5)c4C3=O)cc2C1` [Example 1012, 1-(3-chlorophenyl)-N-(cyclopropylmethyl)-6-(2-methyl-1,2,3,4-tetrahydroisoquinolin-7-yl)-7-oxo-4,5,6,7-tetrahydro-1H-pyrazolo[3,4-c]pyridine-3-carboxamide]: the IC50 is 300 to 1000 nM in assay [1] and 10 to 40 µM in assay [2].
The like results for `CN1CCc2ccc(N3CCc4c(C(=O)NCC5CC5)nn(-c5cccc(Cl)c5F)c4C3=O)cc2C1=O` [Example 2004, 1-(3-chloro-2-fluorophenyl)-N-(cyclopropylmethyl)-6-(2-methyl-1-oxo-1,2,3,4-tetrahydroisoquinolin-7-yl)-7-oxo-4,5,6,7-tetrahydro-1H-pyrazolo[3,4-c]pyridine-3-carboxamide] were, in that order, 100 to 300 nM and above 40 µM.
On the same counts, the results for `CCNC(=O)c1nn(-c2cccc(Cl)c2)c2c1CCN(c1cccc(N3CC4(CC4)N(C)C3=O)c1)C2=O` [Example 1369, 1-(3-chlorophenyl)-N-ethyl-6-(3-(4-methyl-5-oxo-4,6-diazaspiro[2.4]heptan-6-yl)phenyl)-7-oxo-4,5,6,7-tetrahydro-1H-pyrazolo[3,4-c]pyridine-3-carboxamide] are 3000 to 10000 nM and above 40 µM.
Take `Cc1cc(CNC(=O)c2nn(-c3cccc(Cl)c3)c3c2CCN(c2ccc4c(c2)C(=O)N(CC(=O)O)CC4)C3=O)n[nH]1` [Example 1332, 2-(7-(1-(3-chlorophenyl)-3-(((5-methyl-1H-pyrazol-3-yl)methyl)carbamoyl)-7-oxo-1,4,5,7-tetrahydro-6H-pyrazolo[3,4-c]pyridin-6-yl)-1-oxo-3,4-dihydroisoquinolin-2(1H)-yl)acetic acid]: the IC50 in assay [1] was 300 to 1000 nM; in assay [2], above 4 µM.
With `Cc1cc(CNC(=O)c2nn(-c3cccc(Cl)c3)c3c2CCN(c2ccc4c(c2)C(=O)N(CC(N)=O)CCO4)C3=O)nn1C` [Example 1393, 6-(4-(2-amino-2-oxoethyl)-5-oxo-2,3,4,5-tetrahydrobenzo[f][1,4]oxazepin-7-yl)-1-(3-chlorophenyl)-N-((1,5-dimethyl-1H-pyrazol-3-yl)methyl)-7-oxo-4,5,6,7-tetrahydro-1H-pyrazolo[3,4-c]pyridine-3-carboxamide], the IC50 in assay [1] fell in the range of 10 to 100 nM; in assay [2], 1 to 3 µM.
Take `COCc1cc(CNC(=O)c2nn(-c3cccc(Cl)c3)c3c2CCN(c2ccc4c(c2)CN(CCO)CC4)C3=O)[nH]n1` [Example 1156, 1-(3-chlorophenyl)-6-(2-(2-hydroxyethyl)-1,2,3,4-tetrahydroisoquinolin-7-yl)-N-((3-(methoxymethyl)-1H-pyrazol-5-yl)methyl)-7-oxo-4,5,6,7-tetrahydro-1H-pyrazolo[3,4-c]pyridine-3-carboxamide]: the values for the IC50 in assay [1] and in assay [2] were 100 to 300 nM and 10 to 40 µM, respectively.
With `Cc1nc2c(C(=O)O)nn(-c3cccc(Cl)c3)c2c(=O)n1-c1ccc2c(c1)C(=O)N(CCO)CC2` [Example 3018, 1-(3-chlorophenyl)-6-(2-(2-hydroxyethyl)-1-oxo-1,2,3,4-tetrahydroisoquinolin-7-yl)-5-methyl-7-oxo-6,7-dihydro-1H-pyrazolo[4,3-d]pyrimidine-3-carboxylic acid], the IC50 lay within 1000 to 3000 nM in assay [1] and 10 to 40 µM in assay [2].
